Source: patent US20080051419A1, “AMINE DERIVATIVES USEFUL AS ANTICANCER AGENTS” (PFIZER INC., priority 2006, published 2008)
Like-named read-outs stand apart in the source and are kept apart here.

Molecular target: T1, Akt1 (Homo sapiens, UniProt P31749, S473D)
T1 construct: The version of Akt used in these studies lacks the pleckstrin homology (PH) domain
Assay: Akt1 kinase assay, fluorescence polarization (IMAP)
Format: biochemical
How it was run: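 His-tagged Akt1 lacking the PH domain, Thr308-prephosphorylated, 1.5 ng per reaction, with 4 μM ATP and 40 nM TAMRA-Crosstide (solution concentrations) in Tris pH 7.5/MgCl2/DTT buffer. Incubated 30 min at ambient temperature; IMAP fluorescence polarization read (544/615 nm). IC50 after subtraction of no-enzyme background.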

[1] = Table 1, concentration bins, read-out: Concentration Range at which exemplary compounds of formula I inhibit Akt kinase activity
[2] = average Akt kinase activity (IC50), read-out: Avg Akt kinase, μM (50% inhibition)
[3] = read-out: Avg Akt kinase, μM (50% inhibition)

T1 sequence (P31749 118-480 S473D limits assumed, species assumed): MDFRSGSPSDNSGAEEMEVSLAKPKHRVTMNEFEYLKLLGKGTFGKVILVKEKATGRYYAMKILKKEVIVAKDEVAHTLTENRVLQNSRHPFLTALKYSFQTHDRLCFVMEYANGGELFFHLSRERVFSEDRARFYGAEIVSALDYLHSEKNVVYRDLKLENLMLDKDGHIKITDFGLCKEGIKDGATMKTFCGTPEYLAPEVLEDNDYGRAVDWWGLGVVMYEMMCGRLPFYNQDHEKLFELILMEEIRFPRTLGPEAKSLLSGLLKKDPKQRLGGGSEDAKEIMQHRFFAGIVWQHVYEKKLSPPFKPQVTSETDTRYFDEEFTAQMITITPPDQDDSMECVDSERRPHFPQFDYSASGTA

Row | Compound | IC50 [1] | IC50 [2] | IC50 [3]
1 | CCc1c[nH]c2ncnc(N3CC[C@](N)(CNC(=O)c4ccccc4F)C3)c12 [Example 98, N-{[(3S)-3-amino-1-(5-ethyl-7H-pyrrolo[2,3-d]pyrimidin-4-yl)pyrrolidin-3-yl]methyl}-2-fluorobenzamide] | 0.00025 to 0.0025 µM | 0.000683 µM | 
2 | N#Cc1c[nH]c2ncnc(N3CC[C@](N)(CNC(=O)c4ccc(Cl)cc4F)C3)c12 [Example 99, N-{[(3S)-3-amino-1-(5-cyano-7H-pyrrolo[2,3-d]pyrimidin-4-yl)pyrrolidin-3-yl]methyl}-4-chloro-2-fluorobenzamide] | 0.0101 to 0.1 µM | 0.0186 µM | 
3 | Cc1c[nH]c2ncnc(N3CC[C@](N)(CNC(=O)c4ccc(F)cc4Cl)C3)c12 [Example 100, N-{[(3S)-3-amino-1-(5-methyl-7H-pyrrolo[2,3-d]pyrimidin-4-yl)pyrrolidin-3-yl]methyl}-2-chloro-4-fluorobenzamide] | 0.00251 to 0.01 µM | 0.00972 µM | 
4 | Cc1c[nH]c2ncnc(N3CC[C@](N)(CNC(=O)c4cc(F)ccc4F)C3)c12 [Example 101, N-{[(3S)-3-amino-1-(5-methyl-7H-pyrrolo[2,3-d]pyrimidin-4-yl)pyrrolidin-3-yl]methyl}-2,5-difluorobenzamide] | 0.0101 to 0.1 µM | 0.015 µM | 
5 | Cc1c[nH]c2ncnc(N3CC[C@](N)(CNC(=O)c4ccc(Cl)cc4F)C3)c12 [Example 102, N-{[(3S)-3-amino-1-(5-methyl-7H-pyrrolo[2,3-d]pyrimidin-4-yl)pyrrolidin-3-yl]methyl}-4-chloro-2-fluorobenzamide] | 0.0101 to 0.1 µM | 0.014 µM | 
6 | CCc1c[nH]c2ncnc(N3CC[C@](N)(CNC(=O)c4ccc(Cl)cc4F)C3)c12 [Example 103, N-{[(3S)-3-amino-1-(5-ethyl-7H-pyrrolo[2,3-d]pyrimidin-4-yl)pyrrolidin-3-yl]methyl}-4-chloro-2-fluorobenzamide] | 0.00251 to 0.01 µM | 0.00487 µM | 
7 | CCc1c[nH]c2ncnc(N3CC[C@](N)(CNC(=O)c4cccc(F)c4)C3)c12 [Example 105, N-{[(3S)-3-amino-1-(5-ethyl-7H-pyrrolo[2,3-d]pyrimidin-4-yl)pyrrolidin-3-yl]methyl}-3-fluorobenzamide] | 0.0101 to 0.1 µM | 0.0107 µM | 
8 | N[C@]1(CNC(=O)c2cc(F)ccc2F)CCN(c2ncnc3[nH]cc(Cl)c23)C1 [Example 106, N-{[(3S)-3-amino-1-(5-chloro-7H-pyrrolo[2,3-d]pyrimidin-4-yl)pyrrolidin-3-yl]methyl}-2,5-difluorobenzamide] | 0.00025 to 0.0025 µM | 0.0025 µM | 
9 | N[C@]1(CNC(=O)c2ccccc2)CCN(c2ncnc3[nH]cc(Cl)c23)C1 [Example 108, N-{[(3S)-3-amino-1-(5-chloro-7H-pyrrolo[2,3-d]pyrimidin-4-yl)pyrrolidin-3-yl]methyl}benzamide] | 0.00251 to 0.01 µM | 0.00251 µM | 
10 | Cc1c[nH]c2ncnc(N3CC[C@](N)(CNC(=O)c4ccccc4)C3)c12 [Example 109, N-{[(3S)-3-amino-1-(5-methyl-7H-pyrrolo[2,3-d]pyrimidin-4-yl)pyrrolidin-3-yl]methyl}benzamide] | 0.00251 to 0.01 µM | 0.00586 µM | 
11 | CCc1c[nH]c2ncnc(N3CC[C@](N)(CNC(=O)c4ccccc4)C3)c12 [Example 110, N-{[(3S)-3-amino-1-(5-ethyl-7H-pyrrolo[2,3-d]pyrimidin-4-yl)pyrrolidin-3-yl]methyl}benzamide] | 0.00251 to 0.01 µM | 0.0073 µM | 
12 | N#Cc1c[nH]c2ncnc(N3CC[C@](N)(CNC(=O)c4ccccc4)C3)c12 [Example 111, N-{[(3S)-3-amino-1-(5-cyano-7H-pyrrolo[2,3-d]pyrimidin-4-yl)pyrrolidin-3-yl]methyl}benzamide] | 0.0101 to 0.1 µM | 0.0265 µM | 
13 | Cc1c[nH]c2ncnc(N3CC[C@](N)(CNC(=O)c4ccc(F)c(F)c4)C3)c12 [Example 114] | 0.0101 to 0.1 µM | 0.0176 µM | 
14 | Cc1c[nH]c2ncnc(N3CC[C@](N)(CNC(=O)c4cccc(Cl)c4)C3)c12 [Example 115] | 0.00251 to 0.01 µM | 0.00998 µM | 
15 | Cc1c[nH]c2ncnc(N3CC[C@](N)(CNC(=O)c4c(F)ccc(F)c4F)C3)c12 [Example 120, N-{[(3S)-3-amino-1-(5-methyl-7H-pyrrolo[2,3-d]pyrimidin-4-yl)pyrrolidin-3-yl]methyl}-2,3,6-trifluorobenzamide] | 0.0101 to 0.1 µM | 0.0255 µM | 
16 | Cc1cccc(F)c1C(=O)NC[C@@]1(N)CCN(c2ncnc3[nH]cc(C)c23)C1 [Example 121] | 0.0101 to 0.1 µM | 0.0418 µM | 
17 | Cc1c[nH]c2ncnc(N3CC[C@](N)(CNC(=O)c4c(F)cccc4F)C3)c12 [Example 126, N-{[(3S)-3-amino-1-(5-methyl-7H-pyrrolo[2,3-d]pyrimidin-4-yl)pyrrolidin-3-yl]methyl}-2,6-difluorobenzamide] | 0.0101 to 0.1 µM | 0.0199 µM | 
18 | Cc1ccccc1C(=O)NC[C@@]1(N)CCN(c2ncnc3[nH]cc(C)c23)C1 [Example 127, N-{[(3S)-3-amino-1-(5-methyl-7H-pyrrolo[2,3-d]pyrimidin-4-yl)pyrrolidin-3-yl]methyl}-2-methylbenzamide] | 0.0101 to 0.1 µM | 0.0362 µM | 
19 | CCc1c[nH]c2ncnc(N3CC[C@](N)(CNC(=O)c4ccccc4Cl)C3)c12 [Example 128] | 0.0101 to 0.1 µM | 0.0147 µM | 
20 | N[C@]1(CNC(=O)c2ccc(F)c(F)c2)CCN(c2ncnc3[nH]cc(Cl)c23)C1 [Example 129, N-{[(3S)-3-amino-1-(5-chloro-7H-pyrrolo[2,3-d]pyrimidin-4-yl)pyrrolidin-3-yl]methyl}-3,4-difluorobenzamide] | 0.00251 to 0.01 µM | 0.00334 µM | 
21 | CCc1c[nH]c2ncnc(N3CC[C@](N)(CNC(=O)c4c(F)ccc(F)c4F)C3)c12 [Example 132] | 0.0101 to 0.1 µM | 0.0175 µM | 
22 | CCc1c[nH]c2ncnc(N3CC[C@](N)(CNC(=O)c4cccc(Cl)c4)C3)c12 [Example 133] | 0.00251 to 0.01 µM | 0.00447 µM | 
23 | CNC1(CNC(=O)c2ccccc2)CCN(c2ncnc3[nH]cc(Cl)c23)C1 (stereo not shown) [Example 194] | 0.0101 to 0.1 µM |  | 0.0897 µM
24 | Cc1c[nH]c2ncnc(N3CCC(N)(CN(CCN(C)C)C(=O)Nc4ccccc4)C3)c12 (stereo not shown) [Example 195, 1-{[3-amino-1-(5-methyl-7H-pyrrolo[2,3-d]pyrimidin-4-yl)pyrrolidin-3-yl]methyl}-1-[2-(dimethylamino)ethyl]-3-phenylurea] | 0.101 to 10 µM |  | 0.141 µM

Results, then the compound that gave them:

Row | IC50 [1] | IC50 [2] | IC50 [3] | Compound
25 | 0.00251 to 0.01 µM | 0.00674 µM |  | N[C@]1(CNC(=O)c2cccc(F)c2)CCN(c2ncnc3[nH]cc(Cl)c23)C1 [Example 104, N-{[(3S)-3-amino-1-(5-chloro-7H-pyrrolo[2,3-d]pyrimidin-4-yl)pyrrolidin-3-yl]methyl}-3-fluorobenzamide]
26 | 0.00025 to 0.0025 µM | 0.0011 µM |  | N[C@]1(CNC(=O)c2ccc(F)cc2Cl)CCN(c2ncnc3[nH]cc(Cl)c23)C1 [Example 107, N-{[(3S)-3-amino-1-(5-chloro-7H-pyrrolo[2,3-d]pyrimidin-4-yl)pyrrolidin-3-yl]methyl}-2-chloro-4-fluorobenzamide]
27 | 0.00251 to 0.01 µM | 0.00376 µM |  | N[C@]1(CNC(=O)c2cccc(Cl)c2)CCN(c2ncnc3[nH]cc(Cl)c23)C1 [Example 112, N-{[(3S)-3-amino-1-(5-chloro-7H-pyrrolo[2,3-d]pyrimidin-4-yl)pyrrolidin-3-yl]methyl}-3-chlorobenzamide]
28 | 0.0101 to 0.1 µM | 0.0332 µM |  | N[C@]1(CNC(=O)c2c(F)cccc2Cl)CCN(c2ncnc3[nH]cc(Cl)c23)C1 [Example 113, N-{[(3S)-3-amino-1-(5-chloro-7H-pyrrolo[2,3-d]pyrimidin-4-yl)pyrrolidin-3-yl]methyl}-2-chloro-6-fluorobenzamide]
29 | 0.0101 to 0.1 µM | 0.0681 µM |  | Cc1c[nH]c2ncnc(N3CC[C@](N)(CNC(=O)c4c(F)cccc4Cl)C3)c12 [Example 116]
30 | 0.0101 to 0.1 µM | 0.0135 µM |  | Cc1cccc(C(=O)NC[C@@]2(N)CCN(c3ncnc4[nH]cc(C)c34)C2)c1Cl [Example 117]
31 | 0.0101 to 0.1 µM | 0.0124 µM |  | CCc1c[nH]c2ncnc(N3CC[C@](N)(CNC(=O)c4cccc(C)c4Cl)C3)c12 [Example 118]
32 | 0.00251 to 0.01 µM | 0.00785 µM |  | Cc1cccc(C(=O)NC[C@@]2(N)CCN(c3ncnc4[nH]cc(Cl)c34)C2)c1Cl [Example 119]
33 | 0.0101 to 0.1 µM | 0.029 µM |  | Cc1cccc(F)c1C(=O)NC[C@@]1(N)CCN(c2ncnc3[nH]cc(Cl)c23)C1 [Example 122]
34 | 0.00251 to 0.01 µM | 0.00526 µM |  | Cc1c[nH]c2ncnc(N3CC[C@](N)(CNC(=O)c4cccc(F)c4Cl)C3)c12 [Example 123, N-{[(3S)-3-amino-1-(5-methyl-7H-pyrrolo[2,3-d]pyrimidin-4-yl)pyrrolidin-3-yl]methyl}-2-chloro-3-fluorobenzamide]
35 | 0.00251 to 0.01 µM | 0.00691 µM |  | N[C@]1(CNC(=O)c2cccc(F)c2Cl)CCN(c2ncnc3[nH]cc(Cl)c23)C1 [Example 124, N-{[(3S)-3-amino-1-(5-chloro-7H-pyrrolo[2,3-d]pyrimidin-4-yl)pyrrolidin-3-yl]methyl}-2-chloro-3-fluorobenzamide]
36 | 0.0101 to 0.1 µM | 0.0139 µM |  | CCc1c[nH]c2ncnc(N3CC[C@](N)(CNC(=O)c4cccc(F)c4Cl)C3)c12 [Example 125, N-{[(3S)-3-amino-1-(5-ethyl-7H-pyrrolo[2,3-d]pyrimidin-4-yl)pyrrolidin-3-yl]methyl}-2-chloro-3-fluorobenzamide]
37 | 0.00251 to 0.01 µM | 0.00906 µM |  | N[C@]1(CNC(=O)c2c(F)cccc2F)CCN(c2ncnc3[nH]cc(Cl)c23)C1 [Example 130]
38 | 0.00251 to 0.01 µM | 0.01 µM |  | Cc1ccccc1C(=O)NC[C@@]1(N)CCN(c2ncnc3[nH]cc(Cl)c23)C1 [Example 131]
